Test results from patent US20260158009A1 (GENZYME CORPORATION, priority 2023, published 2026).

Tests used:
U937 cells = experiment: Cellular assay in U937 cells: activity of RIPK1 inhibitors on TNFα/zVAD.fmk-induced cell death (necroptosis), CellTiter 96 AQueous (MTS) readout; format: cell-based; conditions: Homo sapiens, U-937
How it was run: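 Necroptosis was measured by viable-cell MTS reduction (4 h, absorbance 490 nm) after overnight (18–24 h) 37° C culture. Cell suspensions of U937 cells carried TNFα (100 ng/ml) plus zVAD.fmk (50 μM) before compound was added. A 10-point curve (10 μM–0.26 nM or 1 μM–0.07 nM) was run in duplicate, normalised to the control lacking TNFα/zVAD.fmk.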

[1] = molecular target: T1, hRIPK1 (aa 1-375) fusion protein (Homo sapiens, UniProt Q13546); experiment: ADP-Glo kinase assay: catalytic activity of RIPK1 (autophosphorylation, conversion of ATP to ADP); format: biochemical
T1 construct: hRIPK1 (aa 1-375) fusion protein
T1 sequence (Q13546 1-375): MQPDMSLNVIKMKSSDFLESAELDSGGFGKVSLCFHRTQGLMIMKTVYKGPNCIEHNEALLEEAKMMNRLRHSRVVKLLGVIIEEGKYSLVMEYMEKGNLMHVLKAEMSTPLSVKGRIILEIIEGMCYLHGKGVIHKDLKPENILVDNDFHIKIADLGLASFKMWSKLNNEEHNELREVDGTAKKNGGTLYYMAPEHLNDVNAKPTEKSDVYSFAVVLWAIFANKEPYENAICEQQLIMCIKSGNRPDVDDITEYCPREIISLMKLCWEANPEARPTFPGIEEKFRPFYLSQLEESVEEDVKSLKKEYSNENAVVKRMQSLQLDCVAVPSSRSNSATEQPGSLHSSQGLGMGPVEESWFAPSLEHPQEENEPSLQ
How it was run: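 The readout was ADP-Glo luminescence after a 240 min rt autophosphorylation reaction with 50 μM ATP, following 30 min preincubation of 3.6 μg/ml hRIPK1 (aa 1-375) fusion with compound at 33300-1.69 nM final in 1% DMSO. Values came from Levenberg-Marquardt nonlinear fits.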

Compound | IC50 [1] | IC50 (U937 cells)
Cc1cncc([C@@H]2CCON2C(=O)[C@H]2CC[C@H](Cc3cc(F)c4nc(C)nn4c3)CC2)c1 [compound 333, trans-[4-[(8-fluoro-2-methyl-[1,2,4]triazolo[1,5-a]333yrdine-6-yl)methyl]cyclohexyl]-[(3S)-3-(5-methylpyridin-3-yl)-1,2-oxazolidin-2-yl]methanone] | 0.03 µM | 0.055 µM
Cc1cncc([C@@H]2CCON2C(=O)[C@H]2CC[C@H](Cc3cc(C)c4ncnn4c3)CC2)c1 [compound 334, trans-[(3S)-3-(5-methylpyridin-3-yl)-1,2-oxazolidin-2-yl]-[4-[(8-methyl-[1,2,4]triazolo[1,5-a]pyridin-6-yl)methyl]cyclohexyl]methanone] | 0.02 µM | 0.035 µM
Cc1cc(C[C@H]2CC[C@H](C(=O)N3OCC[C@H]3c3cncc(F)c3)CC2)cn2ncnc12 [compound 336, trans-[(3S)-3-(5-fluoropyridin-3-yl)-1,2-oxazolidin-2-yl]-[4-[(8-methyl-[1,2,4]triazolo[1,5-a]pyridin-6-yl)methyl]cyclohexyl]methanone] | 0.017 µM | 0.01 µM
Cc1ncc([C@@H]2CCON2C(=O)[C@H]2CC[C@H](Cc3ccc4ncnn4c3)CC2)cc1F [compound 337, trans-[(3S)-3-(5-fluoro-6-methylpyridin-3-yl)-1,2-oxazolidin-2-yl]-[4-([1,2,4]triazolo[1,5-a]pyridin-6-ylmethyl)cyclohexyl]methanone] | 0.026 µM | 0.031 µM
O=C([C@H]1CC[C@H](Cc2ccc3ncnn3c2)CC1)N1OCC[C@H]1c1cncc(F)c1 [compound 338, trans-[(3S)-3-(5-fluoropyridin-3-yl)-1,2-oxazolidin-2-yl]-[4-([1,2,4]triazolo[1,5-a]pyridin-6-ylmethyl)cyclohexyl]methanone] | 0.029 µM | 0.045 µM
Cc1ccc([C@@H]2CCON2C(=O)[C@H]2CC[C@H](Cc3cc(F)c4nc(C)nn4c3)CC2)cn1 [compound 341, trans-[4-[(8-fluoro-2-methyl-[1,2,4]triazolo[1,5-a]pyridin-6-yl)methyl]cyclohexyl]-[(3S)-3-(6-methylpyridin-3-yl)-1,2-oxazolidin-2-yl]methanone] | 0.081 µM | 0.114 µM
Cc1ccc([C@@H]2CCON2C(=O)[C@H]2CC[C@H](Cc3cnc(C)nc3)CC2)cn1 [compound 344, trans-[(3S)-3-(6-methylpyridin-3-yl)-1,2-oxazolidin-2-yl]-[4-[(2-methylpyrimidin-5-yl)methyl]cyclohexyl]methanone] | 0.243 µM | 0.173 µM
COc1cc(C[C@H]2CC[C@H](C(=O)N3OCC[C@H]3c3cncc(F)c3)CC2)cn2nc(C)nc12 [compound 345, trans-[(3S)-3-(5-fluoropyridin-3-yl)-1,2-oxazolidin-2-yl]-[4-[(8-methoxy-2-methyl-[1,2,4]triazolo[1,5-a]pyridin-6-yl)methyl]cyclohexyl]methanone] | 0.026 µM | 0.008 µM
Cc1ncc(C[C@H]2CC[C@H](C(=O)N3OCC[C@H]3c3cnccn3)CC2)cn1 [compound 346, trans-[4-[(2-methylpyrimidin-5-yl)methyl]cyclohexyl]-[(3S)-3-pyrazin-2-yl-1,2-oxazolidin-2-yl]methanone] | 0.083 µM | 0.07 µM
Cc1cn2ncc(C[C@H]3CC[C@H](C(=O)N4OCC[C@H]4c4cnccn4)CC3)cc2n1 [compound 349, trams-[4-[(2-methylimidazo[1,2-b]pyridazin-7-yl)methyl]cyclohexyl]-[(3S)-3-pyrazin-2-yl-1,2-oxazolidin-2-yl]methanone] | 0.042 µM | 0.108 µM
Cc1ccc([C@@H]2CCON2C(=O)[C@H]2CC[C@H](Cc3cc(F)c4nc(C)cn4c3)CC2)cn1 [compound 351, trans-[4-[(8-fluoro-2-methylimidazo[1,2-a]pyridin-6-yl)methyl]cyclohexyl]-[(3S)-3-(6-methylpyridin-3-yl)-1,2-oxazolidin-2-yl]methanone] | 0.21 µM | 0.149 µM
Cc1ccc([C@@H]2CCON2C(=O)[C@H]2CC[C@H](Cc3cc(C)ncc3C)CC2)cn1 [compound 354, trans-[4-(2,5-Dimethyl-pyridin-4-ylmethyl)-cyclohexyl]-[(S)-3-(6-methyl-pyridin-3-yl)-isoxazolidin-2-yl]-methanone] | 0.033 µM | 0.027 µM
Cc1ccc(C[C@H]2CC[C@H](C(=O)N3OCC[C@H]3c3cnccn3)CC2)nn1 [compound 357, trans-[4-[(6-methylpyridazin-3-yl)methyl]cyclohexyl]-[(3S)-3-pyrazin-2-ylisoxazolidin-2-yl]methanone] | 0.138 µM | 0.531 µM
Cc1nnc2ccc(CC3CCC(C(=O)N4OCC[C@H]4c4cnccn4)CC3)c(C)n12 (stereo partly drawn) [compound 358, [4-[(3,5-dimethyl-[1,2,4]triazolo[4,3-a]pyridin-6-yl)methyl]cyclohexyl]-[(3S)-3-pyrazin-2-yl-1,2-oxazolidin-2-yl]methanone] | 0.031 µM | 0.481 µM
Cc1nnc2c(F)cc(C[C@H]3CC[C@H](C(=O)N4OCC[C@H]4c4cnccn4)CC3)cn12 [compound 359, trans-[4-[(8-fluoro-3-methyl-[1,2,4]triazolo[4,3-a]pyridin-6-yl)methyl]cyclohexyl]-[(3S)-3-pyrazin-2-yl-1,2-oxazolidin-2-yl]methanone] | 0.104 µM | 0.451 µM
Cc1nc(C[C@H]2CC[C@H](C(=O)N3OCCC3c3cnc(C)c(F)c3)CC2)cs1 (stereo partly shown) [compound 360] | 0.02 µM | 0.007 µM

Continued by falling IC50 [1], values first:

IC50 [1] | Compound | IC50 (U937 cells)
0.087 µM | Cc1ccc([C@@H]2CCON2C(=O)[C@H]2CC[C@H](Cc3cnn4cc(C)nc4c3)CC2)cn1 [compound 353, trans-[4-[(2-methylimidazo[1,2-b]pyridazin-7-yl)methyl]cyclohexyl]-[(3S)-3-(6-methylpyridin-3-yl)-1,2-oxazolidin-2-yl]methanone] | 0.112 µM
0.063 µM | Cc1cn2cc(C[C@H]3CC[C@H](C(=O)N4OCC[C@H]4c4cnccn4)CC3)cc(F)c2n1 [compound 350, trans-[4-(8-Fluoro-2-methyl-imidazo[1,2-a]pyridin-6-ylmethyl)-cyclohexyl]-((S)-3-pyrazin-2-yl-isoxazolidin-2-yl)-methanone] | 0.034 µM
0.046 µM | Cc1ccc([C@@H]2CCON2C(=O)[C@H]2CC[C@H](Cc3cc(C)c4ncnn4c3)CC2)cn1 [compound 347, trans-[(3S)-3-(6-methylpyridin-3-yl)-1,2-oxazolidin-2-yl]-[4-[(8-methyl-[1,2,4]triazolo[1,5-a]pyridin-6-yl)methyl]cyclohexyl]methanone] | 0.059 µM
0.043 µM | Cc1ncc(C[C@H]2CC[C@H](C(=O)N3OCC[C@H]3c3cnc(C)c(F)c3)CC2)cn1 [compound 343, trans-[(3S)-3-(5-fluoro-6-methylpyridin-3-yl)-1,2-oxazolidin-2-yl]-[4-[(2-methylpyrimidin-5-yl)methyl]cyclohexyl]methanone] | 0.021 µM
0.037 µM | Cc1ccc([C@@H]2CCON2C(=O)[C@H]2CC[C@H](Cc3ccc(C4(O)COC4)cc3)CC2)cn1 [compound 348, trans-5 [4-[[4-(3-hydroxyoxetan-3-yl)phenyl]methyl]cyclohexyl]-[(3S)-3-(6-methylpyridin-3-yl)-1,2-oxazolidin-2-yl]methanone] | 0.105 µM
0.03 µM | O=C([C@H]1CC[C@H](Cc2ccc(C3(O)COC3)cc2)CC1)N1OCC[C@H]1c1cnccn1 [compound 352, trans-[4-[[4-(3-hydroxyoxetan-3-yl)phenyl]methyl]cyclohexyl]-[(3S)-3-pyrazin-2-yl-1,2-oxazolidin-2-yl]methanone] | 0.058 µM
0.027 µM | Cc1ncc([C@@H]2CCON2C(=O)[C@H]2CC[C@H](Cc3cc(C)c4ncnn4c3)CC2)cc1F [compound 335, trans-[(3S)-3-(5-fluoro-6-methylpyridin-3-yl)-1,2-oxazolidin-2-yl]-[4-[(8-methyl-[1,2,4]triazolo[1,5-a]pyridin-6-yl)methyl]cyclohexyl]methanone] | 0.011 µM
0.026 µM | COc1cc(C[C@H]2CC[C@H](C(=O)N3OCC[C@H]3c3cnc(C)c(F)c3)CC2)cn2nc(C)nc12 [compound 342, trans-[(3S)-3-(5-fluoro-6-methylpyridin-3-yl)-1,2-oxazolidin-2-yl]-[4-[(8-methoxy-2-methyl-[1,2,4]triazolo[1,5-a]pyridin-6-yl)methyl]cyclohexyl]methanone] | 0.008 µM
0.025 µM | Cc1cnc([C@@H]2CCON2C(=O)[C@H]2CC[C@H](Cc3cc(C)ncc3C)CC2)cn1 [compound 339, trans-[4-[(2,5-dimethylpyridin-4-yl)methyl]cyclohexyl]-[(3S)-3-(5-methylpyrazin-2-yl)-1,2-oxazolidin-2-yl]methanone] | 0.016 µM
0.025 µM | Cc1nc2c(F)cc(C[C@H]3CC[C@H](C(=O)N4OCC[C@H]4c4cnccn4)CC3)cn2n1 [compound 340, trans-[4-[(8-fluoro-2-methyl-[1,2,4]triazolo[1,5-a]pyridin-6-yl)methyl]cyclohexyl]-[(3S)-3-pyrazin-2-yl-1,2-oxazolidin-2-yl]methanone] | 0.077 µM
